What was measured:
Type in all cases: in vivo
rice (Oryra sativa) = assay: Test B flooded paddy test; conditions: Flood, 0 to 100 scale where 0 is no effect and 100 is complete control, 13 to 15 d
Outline: (§1)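 Visual ratings (0 none to 100 complete control) are relative to untreated plants, taken 13–15 d after treatment in a greenhouse. Test material went straight into floodwater standing 3 cm above the soil, kept constant, on plants at the 2-leaf stage.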

[1] = system: ducksalad (Heteranthera limosa); assay: Test B flooded paddy test; conditions: Flood, 0 to 100 scale where 0 is no effect and 100 is complete control, 13 to 15 d
Outline: as §1

[2] = system: sedge, umbrella (small-flower umbrella sedge, Cyperus difformis); assay: Test B flooded paddy test; conditions: Flood, 0 to 100 scale where 0 is no effect and 100 is complete control, 13 to 15 d
Outline: as §1

[3] = system: barnyardgrass (Echinochloa crus-galli); assay: Test B flooded paddy test; conditions: Flood, 0 to 100 scale where 0 is no effect and 100 is complete control, 13 to 15 d
Outline: as §1

[4] = system: ryegrass, Italian (Italian ryegrass, Lolium multiflorum); assay: Test A preemergence; conditions: for Plant response rating, Ryegrass, Italian: 125 g ai/ha; for Ryegrass, Italian plant response rating (0 to 100 scale, 0 is no effect, 100 is complete control): visual injury approx. 10 d
Outline: (§2)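 Ratings of 0 (no effect) to 100 (complete control) come from visual comparison with untreated controls roughly 10 d after treatment. Test chemicals, formulated in a non-phytotoxic solvent mixture with surfactant, were applied either as a preemergence directed soil spray on seeded soil or postemergence to one- to two-leaf plants 2 to 10 cm tall.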

Kochia (Kochia scoparia) [5] = assay: Test A preemergence; conditions: for Plant response rating, Kochia: 125 g ai/ha, preemergence, 0 to 100 scale (0 no effect, 100 complete control); for Kochia plant response rating (0 to 100 scale, 0 is no effect, 100 is complete control): visual injury approx. 10 d
Outline: as §2

[6] = system: ragweed (common ragweed, Ambrosia elatior); assay: Test A preemergence; conditions: for Plant response rating, Ragweed: 125 g ai/ha; for Ragweed plant response rating (0 to 100 scale, 0 is no effect, 100 is complete control): visual injury approx. 10 d
Outline: as §2

[7] = system: giant foxtail (Setaria faberii); assay: Test A preemergence; conditions: for Plant response rating, Foxtail, Giant: 125 g ai/ha, preemergence, 0 to 100 scale (0 no effect, 100 complete control); for Foxtail, Giant plant response rating (0 to 100 scale, 0 is no effect, 100 is complete control): visual injury approx. 10 d
Outline: as §2

[8] = system: pigweed (Amaranthus retroflexus); assay: Test A preemergence; conditions: for Plant response rating, Pigweed: 125 g ai/ha; for Pigweed plant response rating (0 to 100 scale, 0 is no effect, 100 is complete control): visual injury approx. 10 d
[9] = system: barnyardgrass (Echinochloa crus-galli); assay: Test A preemergence; conditions: for Plant response rating, Barnyardgrass: 125 g ai/ha, preemergence, 0 to 100 scale (0 no effect, 100 complete control); for Barnyardgrass plant response rating (0 to 100 scale, 0 is no effect, 100 is complete control): visual injury approx. 10 d
Outline: as §2

[10] = system: ryegrass, Italian (Italian ryegrass, Lolium multiflorum); assay: Test A postemergence; conditions: for Ryegrass, Italian plant response rating: 125 g ai/ha, visual injury rating on 0 to 100 scale (0 no effect, 100 complete control), approx. 10 d; for Plant response rating, Ryegrass, Italian: 500 g ai/ha
Outline: as §2

[11] = system: Galium (catchweed bedstraw, Galium aparine); assay: Test A postemergence; conditions: for Galium plant response rating: 125 g ai/ha, visual injury rating on 0 to 100 scale (0 no effect, 100 complete control), approx. 10 d; for Plant response rating, Galium: 500 g ai/ha
Outline: as §2

Kochia (Kochia scoparia) [12] = assay: Test A postemergence; conditions: for Kochia plant response rating: 125 g ai/ha, visual injury rating on 0 to 100 scale (0 no effect, 100 complete control), approx. 10 d; for Plant response rating, Kochia: 500 g ai/ha
Outline: as §2

[13] = system: ragweed (common ragweed, Ambrosia elatior); assay: Test A postemergence; conditions: for Ragweed plant response rating: 125 g ai/ha, visual injury rating on 0 to 100 scale (0 no effect, 100 complete control), approx. 10 d; for Plant response rating, Ragweed: 500 g ai/ha
Outline: as §2

[14] = system: blackgrass (Alopecurus myosuroides); assay: Test A postemergence; conditions: for Blackgrass plant response rating: visual injury rating on 0 to 100 scale (0 no effect, 100 complete control)
Outline: as §2

[15] = system: giant foxtail (Setaria faberii); assay: Test A postemergence; conditions: for Foxtail, Giant plant response rating: 125 g ai/ha, visual injury rating on 0 to 100 scale (0 no effect, 100 complete control), approx. 10 d; for Plant response rating, Foxtail, Giant: 500 g ai/ha
Outline: as §2

corn (Zea mays) = assay: Test A postemergence; conditions: postemergence; for Corn plant response rating: 125 g ai/ha, visual injury rating on 0 to 100 scale (0 no effect, 100 complete control), approx. 10 d; for Plant response rating, Corn: 500 g ai/ha, 0 to 100 scale, 0 no effect, 100 complete control
Outline: as §2

[16] = system: pigweed (Amaranthus retroflexus); assay: Test A postemergence; conditions: for Pigweed plant response rating: 125 g ai/ha, visual injury rating on 0 to 100 scale (0 no effect, 100 complete control), approx. 10 d; for Plant response rating, Pigweed: 500 g ai/ha
Outline: as §2

[17] = system: wheat (Triticum aestivum); assay: Test A postemergence; conditions: for Wheat plant response rating: 125 g ai/ha, visual injury rating on 0 to 100 scale (0 no effect, 100 complete control), approx. 10 d; for Plant response rating, Wheat: 500 g ai/ha
Outline: as §2

[18] = system: barnyardgrass (Echinochloa crus-galli); assay: Test A postemergence; conditions: for Barnyardgrass plant response rating: visual injury rating on 0 to 100 scale (0 no effect, 100 complete control)
Outline: as §2

[19] = Preemergence, visual injury after approximately 10 d, 0 to 100 scale where 0 is no effect and 100 is complete control
[20] = Postemergence, 0 to 100 scale where 0 is no effect and 100 is complete control
[21] = 125 g ai/ha, postemergence, approx. 10 d
[22] = 500 g ai/ha, postemergence, 0 to 100 scale, 0 no effect, 100 complete control
[23] = preemergence, 0 to 100 scale (0 no effect, 100 complete control)
[24] = Preemergence, 500 g ai/ha, 0 is no effect, 100 is complete control
[25] = postemergence, 0 to 100 scale, 0 no effect, 100 complete control
[26] = Postemergence, 125 g ai/ha, visual injury, 0 to 100 scale (0 no effect, 100 complete control), approx. 10 d

CN1CC(c2ccccc2)C(C(=S)Nc2ccccc2F)C1=O (stereo not drawn) [Compound 471]
Plant response rating, Rice (rice (Oryra sativa); 250 g ai/ha): 0 | Plant response rating, Ducksalad ([1]; 250 g ai/ha): 70 | Plant response rating, Sedge, Umbrella ([2]; 250 g ai/ha): 0 | Plant response rating, Barnyardgrass ([3]; 250 g ai/ha): 0 | Plant response rating, Ryegrass, Italian [4, 19]: 0 | Ryegrass, Italian plant response rating (0 to 100 scale, 0 is no effect, 100 is complete control) ([4]; Preemergence, 500 g ai/ha): 0 | Plant response rating, Kochia (Kochia (Kochia scoparia) [5]): 0 | Kochia plant response rating (0 to 100 scale, 0 is no effect, 100 is complete control) (Kochia (Kochia scoparia) [5]; Preemergence, 500 g ai/ha): 0 | Plant response rating, Ragweed [6, 19]: 0 | Ragweed plant response rating (0 to 100 scale, 0 is no effect, 100 is complete control) ([6]; Preemergence, 500 g ai/ha): 0 | Plant response rating, Foxtail, Giant [7]: 90 | Foxtail, Giant plant response rating (0 to 100 scale, 0 is no effect, 100 is complete control) ([7]; Preemergence, 500 g ai/ha): 90 | Plant response rating, Pigweed [8, 19]: 0 | Pigweed plant response rating (0 to 100 scale, 0 is no effect, 100 is complete control) ([8]; Preemergence, 500 g ai/ha): 0 | Plant response rating, Barnyardgrass [9]: 70 | Barnyardgrass plant response rating (0 to 100 scale, 0 is no effect, 100 is complete control) ([9]; Preemergence, 500 g ai/ha): 90 | Ryegrass, Italian plant response rating ([10]; postemergence): 0 | Plant response rating, Ryegrass, Italian [10, 20]: 0 | Galium plant response rating ([11]; postemergence): 0 | Plant response rating, Galium [11, 20]: 0 | Kochia plant response rating (Kochia (Kochia scoparia) [12]; postemergence): 0 | Plant response rating, Kochia (Kochia (Kochia scoparia) [12]; [20]): 0 | Ragweed plant response rating ([13]; postemergence): 0 | Plant response rating, Ragweed [13, 20]: 0 | Blackgrass plant response rating [14, 21]: 0 | Plant response rating, Blackgrass [14, 22]: 0 | Foxtail, Giant plant response rating ([15]; postemergence): 50 | Plant response rating, Foxtail, Giant [15, 20]: 70 | Corn plant response rating (corn (Zea mays)): 0 | Plant response rating, Corn (corn (Zea mays)): 0 | Pigweed plant response rating ([16]; postemergence): 0 | Plant response rating, Pigweed [16, 20]: 0 | Wheat plant response rating ([17]; postemergence): 0 | Plant response rating, Wheat [17, 20]: 0 | Barnyardgrass plant response rating [18, 21]: 50 | Plant response rating, Barnyardgrass [18, 22]: 70

O=C1NCC(c2cccc(OCC(F)F)c2)C1C(=O)Nc1ccccc1Cl (stereo not drawn) [Compound 390]
Plant response rating, Rice (rice (Oryra sativa); 500 g ai/ha): 0 | Plant response rating, Ducksalad ([1]; 500 g ai/ha): 65 | Plant response rating, Sedge, Umbrella ([2]; 500 g ai/ha): 0 | Plant response rating, Barnyardgrass ([3]; 500 g ai/ha): 50 | Plant response rating, Ryegrass, Italian [4, 23]: 0 | Ryegrass, Italian plant response rating (0 to 100 scale) [4, 24]: 0 | Plant response rating, Kochia (Kochia (Kochia scoparia) [5]): 0 | Kochia plant response rating (0 to 100 scale) (Kochia (Kochia scoparia) [5]; [24]): 0 | Plant response rating, Ragweed [6, 23]: 0 | Ragweed plant response rating (0 to 100 scale) [6, 24]: 0 | Plant response rating, Foxtail, Giant [7]: 80 | Foxtail, Giant plant response rating (0 to 100 scale) [7, 24]: 90 | Plant response rating, Pigweed [8, 23]: 0 | Pigweed plant response rating (0 to 100 scale) [8, 24]: 0 | Plant response rating, Barnyardgrass [9]: 60 | Barnyardgrass plant response rating (0 to 100 scale) [9, 24]: 80 | Ryegrass, Italian plant response rating ([10]; postemergence): 0 | Plant response rating, Ryegrass, Italian [10, 25]: 10 | Galium plant response rating ([11]; postemergence): 0 | Plant response rating, Galium [11, 25]: 0 | Kochia plant response rating (Kochia (Kochia scoparia) [12]; postemergence): 0 | Plant response rating, Kochia (Kochia (Kochia scoparia) [12]; [25]): 0 | Ragweed plant response rating ([13]; postemergence): 0 | Plant response rating, Ragweed [13, 25]: 0 | Plant response rating, Blackgrass [14, 22]: 0 | Plant response rating, Blackgrass [14, 26]: 0 | Foxtail, Giant plant response rating ([15]; postemergence): 60 | Plant response rating, Foxtail, Giant [15, 25]: 80 | Corn plant response rating (corn (Zea mays)): 0 | Plant response rating, Corn (corn (Zea mays)): 0 | Pigweed plant response rating ([16]; postemergence): 0 | Plant response rating, Pigweed [16, 25]: 20 | Wheat plant response rating ([17]; postemergence): 0 | Plant response rating, Wheat [17, 25]: 0 | Plant response rating, Barnyardgrass [18, 22]: 70 | Plant response rating, Barnyardgrass [18, 26]: 50

O=C1NCC(c2ccc(F)c(F)c2)C1C(=O)Nc1ccc(F)cc1Cl (stereo not drawn) [Compound 411]
Plant response rating, Rice (rice (Oryra sativa); 500 g ai/ha): 0 | Plant response rating, Ducksalad ([1]; 500 g ai/ha): 98 | Plant response rating, Sedge, Umbrella ([2]; 500 g ai/ha): 0 | Plant response rating, Barnyardgrass ([3]; 500 g ai/ha): 20 | Plant response rating, Ryegrass, Italian [4, 23]: 0 | Ryegrass, Italian plant response rating (0 to 100 scale, 0 is no effect, 100 is complete control) ([4]; Preemergence, 500 g ai/ha): 0 | Plant response rating, Kochia (Kochia (Kochia scoparia) [5]): 0 | Kochia plant response rating (0 to 100 scale, 0 is no effect, 100 is complete control) (Kochia (Kochia scoparia) [5]; Preemergence, 500 g ai/ha): 0 | Plant response rating, Ragweed [6, 23]: 0 | Ragweed plant response rating (0 to 100 scale, 0 is no effect, 100 is complete control) ([6]; Preemergence, 500 g ai/ha): 0 | Plant response rating, Foxtail, Giant [7]: 80 | Foxtail, Giant plant response rating (0 to 100 scale, 0 is no effect, 100 is complete control) ([7]; Preemergence, 500 g ai/ha): 90 | Plant response rating, Pigweed [8, 23]: 0 | Pigweed plant response rating (0 to 100 scale, 0 is no effect, 100 is complete control) ([8]; Preemergence, 500 g ai/ha): 10 | Plant response rating, Barnyardgrass [9]: 70 | Barnyardgrass plant response rating (0 to 100 scale, 0 is no effect, 100 is complete control) ([9]; Preemergence, 500 g ai/ha): 80 | Ryegrass, Italian plant response rating ([10]; postemergence): 0 | Plant response rating, Ryegrass, Italian [10, 25]: 0 | Galium plant response rating ([11]; postemergence): 30 | Plant response rating, Galium [11, 25]: 50 | Kochia plant response rating (Kochia (Kochia scoparia) [12]; postemergence): 0 | Plant response rating, Kochia (Kochia (Kochia scoparia) [12]; [25]): 0 | Ragweed plant response rating ([13]; postemergence): 0 | Plant response rating, Ragweed [13, 25]: 0 | Blackgrass plant response rating [14, 21]: 0 | Plant response rating, Blackgrass [14, 22]: 0 | Foxtail, Giant plant response rating ([15]; postemergence): 40 | Plant response rating, Foxtail, Giant [15, 25]: 80 | Corn plant response rating (corn (Zea mays)): 0 | Plant response rating, Corn (corn (Zea mays)): 0 | Pigweed plant response rating ([16]; postemergence): 0 | Plant response rating, Pigweed [16, 25]: 0 | Wheat plant response rating ([17]; postemergence): 0 | Plant response rating, Wheat [17, 25]: 0 | Barnyardgrass plant response rating [18, 21]: 40 | Plant response rating, Barnyardgrass [18, 22]: 70
